This assay deals with T1, PE-labeled human PD-L1-Ig binding to Jurkat cell line over-expressing human PD-1 (Jurkat-PD-1) (Homo sapiens, UniProt Q15116).
T1 construct: expressed in transfected cells; host or cells: Jurkat
Description: Jurkat-PD-1 Cell Binding High-Content Screening Assay (CBA): Method 1. As to conditions: Jurkat-hPD-1 cells, PE-labeled PD-L1-Ig 20 nM final; read-out: Jurkat HPDL1 PD1 IC50 (uM) (Method 1).

Bridge positions count the residues as written; N and C are the ends. Square brackets hold non-standard residues; d marks the D form. Peptide text beside a SMILES is read from it. * marks the point of attachment. ξ: configuration not given here. Ala(morpholin-4-yl) = N[C@@H](CN1CCOCC1)C(=O)O; Phe(4-COOH) = N[C@@H](Cc1ccc(C(=O)O)cc1)C(=O)O; Bip = N[C@@H](Cc1ccc(-c2ccccc2)cc1)C(=O)O; Phe(3-Me) = Cc1cccc(C[C@H](N)C(=O)O)c1; Val(3-OH) = CC(C)(O)[C@H](N)C(=O)O; 4Pal = N[C@@H](Cc1ccncc1)C(=O)O; Cha = N[C@@H](CC1CCCCC1)C(=O)O; Cit = NC(=O)NCCC[C@H](N)C(=O)O; Pip = O=C(O)[C@@H]1CCCCN1; Carboxymethyl = O=C(O)C*; NMeA = CN[C@@H](C)C(=O)O; Orn = NCCC[C@H](N)C(=O)O; Dab = NCC[C@H](N)C(=O)O; Dap = NC[C@H](N)C(=O)O; ξDab = NCCC(N)C(=O)O

T1 sequence (Q15116 25-288): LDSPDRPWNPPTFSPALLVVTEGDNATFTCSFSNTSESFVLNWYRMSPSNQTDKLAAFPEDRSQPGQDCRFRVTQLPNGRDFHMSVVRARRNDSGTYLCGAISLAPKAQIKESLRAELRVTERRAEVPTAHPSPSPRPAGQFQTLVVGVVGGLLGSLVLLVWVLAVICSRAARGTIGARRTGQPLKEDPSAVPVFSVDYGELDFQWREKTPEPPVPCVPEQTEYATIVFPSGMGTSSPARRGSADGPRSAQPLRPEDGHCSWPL

As a reminder, the IC50 is the concentration that inhibits the measured activity by half. Turning to `CC(C)C[C@@H]1NC(=O)[C@H](CCCN)NC(=O)[C@@H](CC(C)C)NC(=O)[C@H](C)N(C)C(=O)[C@H](CCCNC(=N)N)NC(=O)[C@H](Cc2ccc(-c3ccccc3)cc2)NC(=O)[C@H](C(C)C)NC(=O)[C@H](Cc2c[nH]c3ccccc23)NC(=O)[C@H](CC(=O)O)NC(=O)[C@H](Cc2ccc(OCC(=O)O)cc2)NC(=O)[C@H](Cc2ccccc2)NC(=O)CSC[C@@H](C(=O)N[C@@H](C)C(N)=O)NC(=O)[C@H]([C@@H](C)O)NC(=O)[C@H](C(C)C)NC1=O` [Compound 1140] ({CH2CO}-FY(Carboxymethyl)DWV[Bip]R[NMeA][dL][Orn]LVTCA-NH2; thioether N-14), the IC50 is 0.03 µM.
With `Cc1cccc(C[C@@H]2NC(=O)[C@H](CC(=O)O)NC(=O)[C@H](Cc3ccc(OCC(=O)O)cc3)NC(=O)[C@H](CN)NC(=O)CSC[C@@H](C(N)=O)NC(=O)[C@H](CO)NC(=O)[C@H](C(C)C)NC(=O)[C@H](CC3CCCCC3)NC(=O)[C@H](CCN)NC(=O)[C@@H](CC(C)C)NC(=O)[C@@H]3CCCCN3C(=O)[C@H](Cc3ccc(OCC(=O)O)cc3)NC(=O)[C@H](Cc3ccc(-c4ccccc4)cc3)NC(=O)[C@H](Cc3ccc(OCC(=O)O)cc3)NC2=O)c1` [Compound 1892] ({CH2CO}-[Dap]Y(Carboxymethyl)D[Phe(3-Me)]Y(Carboxymethyl)[Bip]Y(Carboxymethyl)[Pip][dL][Dab][Cha]VSC-NH2; thioether N-14) the figure was 0.06 µM.
Regarding `CC[C@H](C)[C@@H]1NC(=O)[C@H](Cc2ccc(-c3ccccc3)cc2)NC(=O)[C@H](C(C)(C)O)NC(=O)[C@H](Cc2cccc(C)c2)NC(=O)[C@H](CC(=O)O)NC(=O)[C@H](Cc2ccc(O)cc2)NC(=O)[C@H](CC(N)=O)NC(=O)CSC[C@@H](C(=O)N[C@@H](CCN)C(N)=O)NC(=O)[C@H](CCC(=O)O)NC(=O)[C@H](C(C)(C)O)NC(=O)[C@H](CC2CCCCC2)NC(=O)[C@H](CCN)NC(=O)[C@@H](CC(C)C)NC(=O)[C@H](C)N(C)C1=O` [Compound 1699] ({CH2CO}-NYD[Phe(3-Me)][Val(3-OH)][Bip]I[NMeA][dL][Dab][Cha][Val(3-OH)]EC[Dab]-NH2; thioether N-14), the IC50 was determined as 0.04 µM.
Turning to `CC(C)C[C@@H]1NC(=O)[C@H](CCN)NC(=O)[C@@H](CC(C)C)NC(=O)[C@H](C)N(C)C(=O)[C@H](CCCNC(N)=O)NC(=O)[C@H](Cc2ccc(-c3ccccc3)cc2)NC(=O)[C@H](C(C)C)NC(=O)[C@H](Cc2c[nH]c3ccccc23)NC(=O)[C@H](CC(=O)O)NC(=O)[C@H](Cc2ccc(C(=O)O)cc2)NC(=O)[C@H](Cc2ccncc2)NC(=O)CSC[C@@H](C(=O)N[C@@H](C)C(N)=O)NC(=O)[C@H]([C@@H](C)O)NC(=O)[C@H](C(C)C)NC1=O` [Compound 1328] ({CH2CO}-[4Pal][Phe(4-COOH)]DWV[Bip][Cit][NMeA][dL][Dab]LVTCA-NH2; thioether N-14), the IC50 was found to be 0.01 µM.
Under `Cc1cccc(C[C@@H]2NC(=O)[C@H](CC(=O)O)NC(=O)[C@H](Cc3ccc(OCC(=O)O)cc3)NC(=O)[C@H](CN3CCOCC3)NC(=O)CSC[C@@H](C(=O)NC(CCN)C(N)=O)NC(=O)[C@H](CCCN)NC(=O)[C@H](C(C)C)NC(=O)[C@H](Cc3cccc(C)c3)NC(=O)[C@H](CCN)NC(=O)[C@@H](CC(C)C)NC(=O)[C@H](C)N(C)C(=O)[C@H](CCC(N)=O)NC(=O)[C@H](Cc3ccc(-c4ccccc4)cc3)NC(=O)[C@H](Cc3ccc(C(=O)O)cc3)NC2=O)c1` (stereo partly drawn) [Example 2298] ({CH2CO}-[Ala(morpholin-4-yl)]Y(Carboxymethyl)D[Phe(3-Me)][Phe(4-COOH)][Bip]Q[NMeA][dL][Dab][Phe(3-Me)]V[Orn]C[ξDab]-NH2; thioether N-14) stands 0.01 µM.

Values taken from patent US20240409585A1, “MACROCYCLIC IMMUNOMODULATORS” (priority 2021, published 2024).
